In patent US11701361B2, “p110-delta inhibitors treat and prevent autoimmunity while sparing the ability to mount an immune response to exogenous immunogens” (THE REGENTS OF THE UNIVERSITY OF COLORADO, priority 2018, dated 2023):

Tested on: PTEN^−/+×SHIP-1^−/+ B cells
Experiment: adoptive transfer of autoreactive PTEN-/+ x SHIP-1-/+ Ars/A1 B cells, loss of anergy
Assay type: in vivo, mouse
Conditions: for number of autoreactive ASCs/spleen: day 14
Source text: Except where otherwise indicated, 6-16 week old mice were used in all experiments. Both male and female mice were used, but experiments were sex matched and both sexes gave identical results, with the exception of only female mice being used in the VH125.NOD experiments as female mice develop accelerated disease. hCD20-TamCre animals (Khalil, et al. Science 336: 1178-81) were intercrossed with mice carrying the rosa26-flox-STOP-YFP allele (Srinivas, et al., BMC Dev. Biol. 1:4), generating mice in which YFP is expressed in B cells upon Cre activation. These mice were crossed with Ars/A1 (Benschop, et al., Immunity 14: 33-43) transgenic mice to generate hCD20-TamCre×rosa26-flox-STOP-YFP×Ars/A1 mice. B cells from these mice will be referred to as WT Ars/A1. These mice were also crossed with SHIP-1^flox/flox mice (Karlsson, et al. J Exp Med 198: 333-40). hCD20-TamCre×rosa26-flox-STOP-YFP×Ars/A1 mice were also crossed to PTEN^flox/flox mice (Anzelon, et al., Nat Immunol 4: 287-94) and SHP-1^flox/flox mice to generate mice in which SHIP-1, PTEN and SHP-1 deletion can be induced in anergic B cells. hCD20-TamCre×rosa26-flox-STOP-YFP×PTEN^flox/flox×Ars/A1 were crossed to hCD20-TamCre×rosa26-flox-STOP-YFP×SHIP-1^flox/flox×Ars/A1 to generate hCD20-TamCre×rosa26-flox-STOP-YFPx PTEN^flox/wt×SHIP-1^flox/wt×Ars/A1 to allow for the double haploinsufficiency of both PTEN and SHIP-1 within B cells.
2 hours before adoptive transfer, C57BL/6 recipient mice received 200 rads irradiation. […] B cells from donor mice were isolated via depletion of CD43+ cells with anti-CD43-conjugated magnetic beads (MACS anti-mouse CD43; Miltenyi Biotec). Alternatively, CD4+ T cells were isolated via CD4 positive selection (MACS anti-mouse CD4 (L3T4) Miltenyi Biotec). Resultant populations were >97% pure based on flow cytometric analyses. Donor B cells were labeled with either CellTrace Violet (Molecular Probes) or CFSE (Molecular Probes) at 5 μM for 5 minutes at room temperature prior to transfer. Donor CD4 T cells were labeled with CFSE (Molecular Probes) at 5 μM for 5 minutes at room temperature prior to transfer. 1-2×10^6 donor cells in 200 μl PBS were adoptively transferred via IV injection. 24 hours post transfer, tamoxifen was administered to activate Cre. Tamoxifen (Sigma-Aldrich) was dissolved in 100% corn oil (Sigma-Aldrich) at 20 mg/ml. Recipient mice were injected IP with 100 μl (2 mg) on two consecutive days.
Diet dose (DD) is calculated by multiplying the single daily dose (SD) by the body weight of a mouse (BW) and dividing that by the daily food intake (FI) [DD=(SD×BW)/FI].
For VH125.NOD experiments animals are placed on control chow immediately after weaning.
Spleens were mechanically disrupted, single-cell suspensions were generated, and red blood cells were lysed with ammonium chloride TRIS. Cells were resuspended in PBS containing 1% FBS and incubated with indicated antibodies. For analysis of cell surface markers, antibodies against the following molecules were used: B220-PE (BioLegend), B220-BV786 (BD Biosciences), B220-BV510 (BioLegend), CD4-BV711 (BioLegend), CD8-BV421 (BioLegend), CD138-PECy7 (BioLegend), CD69-BV786 (BD Biosciences), CD86-PerCPCy5.5 (BioLegend). After cell surface staining, the cells were fixed and permeabilized with Cytofix/Cytoperm (BD) per manufacturer's instructions and stained with Dylight650-E4 anti-Ars/A1 idiotype (produced and conjugated in our laboratory) OR HEL-650 (produced and conjugated in our laboratory) and Alexa Fluor 488-anti-GFP (rabbit polyclonal; Life Technologies). Events were collected on a CyAn ADP (Dako) and subsequent analysis using FlowJo software (Tree Star).
For detection of IgM^a anti-Ars antibodies, microtiter plates were coated with 10 μg/ml Ars-BSA16 in PBS and blocked with 2 mg/ml BSA in PBS 0.05% Tween-20. For detection of IgM^a anti-HEL antibodies, microtiter plates were coated with 10 μg/ml HEL in PBS and blocked with 2 mg/ml BSA in PBS 0.05% Tween-20. […]

[1] = 0.9375 mg/kg, 3.75 mg/kg and 30 mg/kg chow, relative to vehicle control chow

CC[C@H](Nc1ncnc2nc[nH]c12)c1nc2cccc(F)c2c(=O)n1-c1ccccc1 [idelalisib, 5-fluoro-3-phenyl-2-[(1S)-1-(7H-purin-6-ylamino)propyl]-4(3H)-quinazolinone]
number of autoreactive ASCs/spleen (0.9375 mg/kg and 3.75 mg/kg chow): significantly reduced
serum autoantibody (IgM^a anti-Ars) (0.9375 mg/kg, 3.75 mg/kg and 30 mg/kg chow, day 14, relative to untreated controls): significantly decreased
plasmablast differentiation as measured by CD138 positivity [1]: significantly decreased
proliferation of transferred B cells [1]: significantly decreased
number of autoreactive ASCs/spleen (30 mg/kg chow): undetected
total Ars/A1 idiotype+ YFP+ B cells in the spleens (recovery of transferred cells) (day 14 post transfer, regardless of treatment): no significant difference
